# Data published in patent US20250152526A1, “USES OF IVALTINOSTAT FOR TREATING PANCREATIC CANCER” (CG PHARMACEUTICALS, INC, priority 2022, published 2025).
# Legend:
# pancreatic cancer = conditions: 1250 mg/m^2 twice daily for 2 weeks followed by 1-week rest, first line; cited from earlier work
# CYP1A2 = molecular target: T1, CYP1A2 (Homo sapiens, UniProt P05177); assay: in vitro CYP inhibition; type: in vitro ADME
# T1 sequence (P05177 1-516): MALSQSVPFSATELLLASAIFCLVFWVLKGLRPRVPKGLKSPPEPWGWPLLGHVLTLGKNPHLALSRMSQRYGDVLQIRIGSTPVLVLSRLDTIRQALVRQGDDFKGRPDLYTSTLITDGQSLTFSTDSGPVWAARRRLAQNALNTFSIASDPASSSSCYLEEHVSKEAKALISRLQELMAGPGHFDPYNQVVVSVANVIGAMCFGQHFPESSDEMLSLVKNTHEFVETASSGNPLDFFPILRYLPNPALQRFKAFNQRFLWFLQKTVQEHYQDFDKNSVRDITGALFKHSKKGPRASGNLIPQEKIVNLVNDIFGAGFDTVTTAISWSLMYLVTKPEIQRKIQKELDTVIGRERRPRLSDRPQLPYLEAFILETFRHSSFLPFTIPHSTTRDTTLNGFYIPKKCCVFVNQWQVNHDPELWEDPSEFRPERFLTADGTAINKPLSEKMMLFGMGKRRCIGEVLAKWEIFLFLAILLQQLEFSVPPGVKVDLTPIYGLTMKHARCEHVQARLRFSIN
# Text: (§1) Concomitant use of drugs that are moderate or strong inhibitors or inducers of these CYP enzymes should be avoided. […] Concomitant use of drugs that are substrates of CYP2D6 and have a narrow therapeutic index is not advised.
# CYP2C19 = CYP2C19 (Homo sapiens, UniProt P33261); assay: in vitro CYP inhibition; type: in vitro ADME
# Chain of CYP2C19 (P33261 whole entry): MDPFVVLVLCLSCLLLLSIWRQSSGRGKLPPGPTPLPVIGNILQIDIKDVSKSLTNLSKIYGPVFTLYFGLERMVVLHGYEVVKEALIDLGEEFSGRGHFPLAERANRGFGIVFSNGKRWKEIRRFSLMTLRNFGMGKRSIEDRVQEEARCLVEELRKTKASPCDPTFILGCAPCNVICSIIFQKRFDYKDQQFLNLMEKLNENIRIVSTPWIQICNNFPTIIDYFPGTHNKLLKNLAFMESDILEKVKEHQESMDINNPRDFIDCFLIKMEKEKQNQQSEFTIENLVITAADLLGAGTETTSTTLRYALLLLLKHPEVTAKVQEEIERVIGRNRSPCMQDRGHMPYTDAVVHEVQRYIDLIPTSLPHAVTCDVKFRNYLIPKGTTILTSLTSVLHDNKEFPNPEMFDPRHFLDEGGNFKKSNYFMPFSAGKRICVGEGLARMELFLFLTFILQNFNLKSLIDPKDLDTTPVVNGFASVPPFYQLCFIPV
# Text: as §1
# CYP3A4 = CYP3A4 (Homo sapiens, UniProt P08684); assay: in vitro CYP inhibition; type: in vitro ADME
# Chain of CYP3A4 (P08684 whole entry): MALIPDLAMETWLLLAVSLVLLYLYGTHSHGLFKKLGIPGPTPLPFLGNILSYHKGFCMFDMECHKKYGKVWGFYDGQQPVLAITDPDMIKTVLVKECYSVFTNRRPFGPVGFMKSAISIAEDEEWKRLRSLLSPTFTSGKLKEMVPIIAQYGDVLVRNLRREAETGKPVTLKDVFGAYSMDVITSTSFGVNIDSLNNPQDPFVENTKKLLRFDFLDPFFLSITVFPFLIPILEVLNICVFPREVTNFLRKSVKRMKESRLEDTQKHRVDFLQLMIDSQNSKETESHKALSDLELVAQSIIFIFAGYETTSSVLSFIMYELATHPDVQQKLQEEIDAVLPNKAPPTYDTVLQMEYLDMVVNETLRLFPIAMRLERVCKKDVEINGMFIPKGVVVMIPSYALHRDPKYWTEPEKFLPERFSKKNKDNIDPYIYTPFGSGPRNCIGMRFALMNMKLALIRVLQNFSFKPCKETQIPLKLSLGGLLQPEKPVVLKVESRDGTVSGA
# Text: as §1
# CYP2C9 = CYP2C9 (Homo sapiens, UniProt P11712); assay: in vitro CYP inhibition; type: in vitro ADME
# Chain of CYP2C9 (P11712 whole entry): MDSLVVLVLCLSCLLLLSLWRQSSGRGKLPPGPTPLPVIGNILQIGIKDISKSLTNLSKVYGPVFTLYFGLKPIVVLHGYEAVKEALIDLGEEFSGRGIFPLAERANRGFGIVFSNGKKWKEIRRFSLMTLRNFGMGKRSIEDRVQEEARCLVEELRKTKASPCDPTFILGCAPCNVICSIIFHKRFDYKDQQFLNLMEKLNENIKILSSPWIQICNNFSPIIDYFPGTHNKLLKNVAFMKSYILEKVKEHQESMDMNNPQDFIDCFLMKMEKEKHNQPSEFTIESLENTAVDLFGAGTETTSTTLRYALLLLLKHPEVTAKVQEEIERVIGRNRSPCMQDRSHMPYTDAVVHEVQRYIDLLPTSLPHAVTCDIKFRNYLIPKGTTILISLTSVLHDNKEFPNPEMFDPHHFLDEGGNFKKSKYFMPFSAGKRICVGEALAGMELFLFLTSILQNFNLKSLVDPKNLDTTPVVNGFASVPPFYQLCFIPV
# Text: as §1
# CYP2D6 [1] = molecular target: T2, CYP2D6 (Homo sapiens, UniProt P10635); assay: in vitro CYP inhibition; type: in vitro ADME
# T2 sequence (P10635 whole entry): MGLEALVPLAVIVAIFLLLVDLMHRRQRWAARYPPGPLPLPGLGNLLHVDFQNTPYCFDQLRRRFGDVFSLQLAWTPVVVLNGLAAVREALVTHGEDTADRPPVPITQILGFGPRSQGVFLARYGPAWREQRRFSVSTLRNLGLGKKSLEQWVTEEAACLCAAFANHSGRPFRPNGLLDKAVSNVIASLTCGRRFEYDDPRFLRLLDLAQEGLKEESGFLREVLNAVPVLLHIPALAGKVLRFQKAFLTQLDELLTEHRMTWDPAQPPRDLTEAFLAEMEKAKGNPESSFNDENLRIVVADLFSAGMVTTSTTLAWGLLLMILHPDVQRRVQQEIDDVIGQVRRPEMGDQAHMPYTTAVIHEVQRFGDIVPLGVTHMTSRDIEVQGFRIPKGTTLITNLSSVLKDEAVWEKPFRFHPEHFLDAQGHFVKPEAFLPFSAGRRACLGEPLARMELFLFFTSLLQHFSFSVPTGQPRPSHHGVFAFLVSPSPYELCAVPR
# Text: as §1
# CYP3A = assay: nonclinical CYP substrate studies; type: in vitro ADME
# Text: as §1
# CYP2D6 [2] = molecular target: T2, CYP2D6; assay: nonclinical CYP substrate studies; type: in vitro ADME
# Text: as §1
# [3] = Phase 1/2 study of ivaltinostat (IV) in combination with gemcitabine and erlotinib
# Description: Ivaltinostat was administered on Days 1, 8 and 15 of a 28-day cycle in combination with gemcitabine (1000 mg/m^2; IV on Days 1, 8, and 15) and erlotinib (100 mg orally QD).
# In the Phase 2 component of the study, 24 subjects received ivaltinostat at a dose level of 250 mg/m^2 in combination of gemcitabine (1000 mg/m^2; IV on Days 1, 8, and 15) and erlotinib (100 mg orally QD). In Phase 2, planned treatment duration was up to 6 cycles, but treatment could continue beyond 6 cycles if there was no progression of disease, at the discretion of the subject and treating physician.
# [4] = tested on: germline BRCA-mutated metastatic pancreatic cancer; conditions: cited from earlier work
# [5] = tested on: metastatic pancreatic cancer; conditions: first line; cited from earlier work
# [6] = Phase 2, 250 mg/m^2 plus gemcitabine and erlotinib
# [7] = Phase 2, 16 evaluable subjects, plus gemcitabine and erlotinib
# [8] = Phase 2, 16 subjects with at least one tumor evaluation, plus gemcitabine and erlotinib
compound,measurement,setting,value
"CCCCCOC(=O)Nc1nc(=O)n([C@@H]2O[C@H](C)[C@@H](O)[C@H]2O)cc1F [Capecitabine, capecitabine]",efficacy and tolerability of dose schedule,pancreatic cancer,effective and tolerable
"CN(C)CCCNC(=O)/C(=C/CCCCC(=O)NO)COc1cccc2ccccc12.O=P(O)(O)O [ivaltinostat, (E)-N1-(3-(dimethylamino)propyl)-N8-hydroxy-2-((naphthalen-1-yloxy)methyl)oct-2-enediamide phosphate]",IC50,CYP1A2,> 10 µM
same,IC50,CYP2C19,> 90 µM
same,IC50,CYP3A4,> 10 µM
same,IC50,CYP2C9,> 90 µM
same,IC50,CYP2D6 [1],5.5 µM
same,substrate for CYP3A,CYP3A,substrate
same,substrate for CYP2D6,CYP2D6 [2],substrate
same,"anemia, grade 3 treatment-related AE frequency",[3]; [6],17%
same,"anemia, grade 4 treatment-related AE frequency",[3]; [6],0%
same,deaths related to SAEs considered related to the investigational drugs,[3]; [6],no deaths
same,discontinuation of study drug due to an AE,[3]; [6],No subjects discontinued
same,"neutrophil count decreased, grade 3 treatment-related AE frequency",[3]; [6],13%
same,"neutrophil count decreased, grade 4 treatment-related AE frequency",[3]; [6],17%
same,"platelet count decreased, grade 3 treatment-related AE frequency",[3]; [6],17%
same,"platelet count decreased, grade 4 treatment-related AE frequency",[3]; [6],13%
same,tolerability,[3]; [6],generally well tolerated
same,partial responses,[3]; [7],25%
same,"partial responses, number of patients",[3]; [7],4 patients
same,stable disease,[3]; [7],68.8%
same,"stable disease, number of patients",[3]; [7],11 patients
same,disease control rate (DCR),[3]; [8],93.8%
same,objective response rate (ORR),[3]; [8],25.0%
O=C(c1cc(Cc2n[nH]c(=O)c3ccccc23)ccc1F)N1CCN(C(=O)C2CC2)CC1 [olaparib],median PFS,"[4]; gBRCA patients after ≥16 weeks of platinum-based therapy, vs. placebo",7.4 months
same,HR (PFS vs. placebo),"[4]; gBRCA patients, p=0.004",0.53
FOLFIRINOX,median progression-free survival (PFS),[5],6.4 months
same,overall survival (OS),[5],11.1 months
